Test results published in PubChem BioAssay (NCI).
“And” between values parts separate entries of the source, which are not always exact repeats. Equal values may be shown once.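 Dose response: 5 concentrations. Exposure: 48 h. Format: 96-well plates. Endpoint: linear interpolation; highest concentration if not reached. Abbreviation: GI50, concentration required for 50% inhibition of growth. TGI: total growth inhibition.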

Assays:
Assay in all cases: NCI-60 cell line screen, 48 h
[1] = test system: CCRF-CEM leukemia
[2] = test system: A549 NSCLC
[3] = test system: SK-MEL-5 melanoma
[4] = test system: UO-31 renal
[5] = test system: UACC-257 melanoma
[6] = test system: HCC-2998 colon
[7] = test system: HOP-92 NSCLC
[8] = test system: IGROV1 ovarian
[9] = test system: HL-60(TB) leukemia
[10] = test system: SK-MEL-2 melanoma

| Structure (SMILES) | TGI [1] | TGI [2] | TGI [3] | TGI [4] | TGI [5] | TGI [6] | TGI [7] | TGI [8] | TGI [9] | TGI [10] | GI50 [1] | GI50 [2] | GI50 [10] | GI50 [3] | GI50 [4] | GI50 [5] | GI50 [6] | GI50 [7] | GI50 [8] | GI50 [9] |
| --- | --- | --- | --- | --- | --- | --- | --- | --- | --- | --- | --- | --- | --- | --- | --- | --- | --- | --- | --- | --- |
| O=c1[nH]c2cc(Cl)ccc2nc1/C(=N\O)C(O)c1cccc([N+](=O)[O-])c1 (centres undefined) | > 100 µM | > 100 µM | > 100 µM | > 100 µM | > 100 µM | > 100 µM | > 100 µM | > 100 µM | > 100 µM |  |  |  |  |  |  |  |  |  |  |  |
| CN1C(=Nc2ccccc2)SC1=Nc1ccccc1 | > 100 µM | > 100 µM | > 100 µM | > 100 µM | > 100 µM | > 100 µM | 58.5 µM | > 100 µM | > 100 µM | > 100 µM |  |  |  |  |  |  |  |  |  |  |
| c1ccc2c(c1)cc(C1NCCc3[nH]cnc31)c1ccccc12 (centres undefined) | > 67.9 µM | > 100 µM | > 69.8 µM | > 100 µM | > 68.3 µM | 21.8 µM | > 95.6 µM | > 100 µM | > 100 µM | 36.5 µM |  |  |  |  |  |  |  |  |  |  |
| COc1ccc2nc3cccc([N+](=O)[O-])c3c(NCCCCCC(=O)O)c2c1 | 0.302 µM | 2.17 µM | 0.0694 µM | 0.484 µM | 0.926 µM | 2.5 µM | 0.456 µM | 1.16 µM | 6.2 µM | 0.117 µM | 0.0397 µM | 0.12 µM | 0.0342 µM | 0.0116 µM | 0.161 µM | 0.257 µM | 1.18 µM | 0.0878 µM | 0.231 µM | 0.0372 µM |
| COc1cnc2c(c1)C(=O)c1c-2n(CCCn2ccnc2)c(=O)c2cc(F)ccc12 |  | 1.5 µM | 0.0717 µM | 0.147 µM | 0.493 µM | 79.5 µM | 3.11 µM |  | 0.311 µM | 0.449 µM |  | 0.0209 µM | 0.232 µM | 0.0169 µM | < 0.01 µM | 0.102 µM | 0.361 µM | 0.154 µM |  | 0.0363 µM |
| COc1ccc2n[se]nc2c1 | > 100 µM | > 100 µM | > 100 µM | > 100 µM | > 100 µM | > 100 µM |  | > 100 µM | > 100 µM | > 100 µM |  |  |  |  |  |  |  |  |  |  |
| CCN(CC)c1c(C(=O)/C=C/c2ccc(OC)cc2)c(-c2ccccc2)nn(C)c1=O | 45.6 µM | 81 µM | 21.5 µM | > 100 µM | 60.8 µM |  | 43.4 µM | 68.8 µM | 43.9 µM | 38.7 µM |  |  |  |  |  |  |  |  |  |  |
| CN(C)CC/C(=N\Nc1ccc([N+](=O)[O-])cc1)c1ccccc1 | 23.6 µM | 26.8 µM | 28.5 µM | 6.02 µM | 30.5 µM |  |  | 24.9 µM | 16.3 µM | 28.2 µM |  |  |  |  |  |  |  |  |  |  |
| FC(F)(F)c1ccc(Nc2nc(-c3c(C(F)(F)F)nc4ccccn34)cs2)cc1 | > 30.8 µM | 10.6 µM | 1.49 µM | 6.89 µM | 8.64 µM | 9.74 µM |  | 12.1 µM | 2.25 µM | 6.76 µM | 0.0502 µM | 0.0625 µM | 0.0734 µM | 0.0358 µM | 0.289 µM | 2.06 µM | 0.18 µM |  | 0.422 µM | 0.0406 µM |
| COC(=O)C1(C)CCC(c2ccc(C)cc2)=C(CC(=O)O)C1 (centres undefined) |  | > 100 µM | > 100 µM |  | > 100 µM |  | > 100 µM | > 100 µM | > 100 µM | > 100 µM |  |  |  |  |  |  |  |  |  |  |
| O=[N+]([O-])c1cc(C(F)(F)F)cc([N+](=O)[O-])c1CCl | 0.722 µM | 24.7 µM | 1.75 µM | 20.6 µM | 10.2 µM |  | 19.1 µM | 6.09 µM | 3.21 µM | > 26.7 µM |  |  |  |  |  |  |  |  |  |  |
| CCOC(=O)N1CCN(C=S)CC1 | > 100 µM | > 100 µM | > 100 µM | > 100 µM | > 100 µM | > 100 µM |  | > 100 µM | > 100 µM | > 100 µM |  |  |  |  |  |  |  |  |  |  |
| CCOc1ccc2c(c1)[n+]([O-])c(-c1ccc(Cl)cc1)c(N)[n+]2[O-] |  | > 100 µM | > 100 µM | > 100 µM | > 100 µM |  | > 100 µM | > 100 µM | > 100 µM | > 100 µM |  |  |  |  |  |  |  |  |  |  |
| CC(C)C1CC[C@@H](C)C[C@@]1(O)CC(N)=O (some centres undefined) |  | > 100 µM | > 100 µM | > 100 µM | > 100 µM | > 100 µM |  | > 100 µM |  | > 100 µM |  |  |  |  |  |  |  |  |  |  |
| CCC(C)(CC(C)(C)C(=O)NCC(=O)NC(Cc1ccccc1)C(=O)NC(Cc1ccccc1)C(=O)NCC(=O)NC1CC(OC2CC(O)(C(=O)CO)Cc3c(O)c4c(c(O)c32)C(=O)c2c(OC)cccc2C4=O)OC(C)C1O)C(=O)NCC(C)O (centres undefined) | > 150 µg/mL |  | 148 µg/mL | > 150 µg/mL | > 150 µg/mL | > 150 µg/mL | > 150 µg/mL | > 150 µg/mL |  | > 150 µg/mL | 3.35 µg/mL and 98.9 µg/mL |  | 127 µg/mL | 28.8 µg/mL | > 150 µg/mL | > 150 µg/mL | 116 µg/mL | > 150 µg/mL | 41.7 µg/mL | 1.32 µg/mL and 62.8 µg/mL |
| Cc1ccc(S(=O)(=O)N/N=C/c2c(O)ccc3ccccc23)cc1 | > 100 µM | > 100 µM | > 100 µM | > 100 µM | > 100 µM | 46.1 µM |  | 84.5 µM | > 100 µM | 49.1 µM |  |  |  |  |  |  |  |  |  |  |
| CCCCNc1nc(C#N)c(N)s1 |  | > 100 µM |  | > 100 µM | > 100 µM | > 100 µM | > 100 µM | > 100 µM | > 100 µM | > 100 µM |  |  |  |  |  |  |  |  |  |  |
| COc1ccc(C(=O)OC2C(OC3C(O)COC(O[C@H]4C[C@H]5[C@@H]6CC=C7C[C@@H](O)CC[C@]7(C)[C@H]6CC[C@]5(C)[C@H]4[C@H](C)C(=O)CCC(C)C)C3OC(N)=O)OCC(O)C2O)cc1 (some centres undefined) | 0.0966 µM | 4.75 µM | 0.615 µM | 0.425 µM | 0.472 µM | 6.16 µM | 1.2 µM | 3.69 µM |  | 0.242 µM | < 0.003 µM | 0.0773 µM | 0.00527 µM | 0.114 µM | 0.0944 µM | 0.03 µM | 1.21 µM | 0.0686 µM | 0.0282 µM |  |
| C[C@H]1[C@H](C)CC[C@]2(CO)CC[C@]3(C)C(=CC[C@@H]4[C@@]5(C)CCCNC(C)(C)[C@@H]5CC[C@]43C)[C@H]12 | 3.93 µM | 3.28 µM | 3.09 µM | 2.99 µM | 3.7 µM | 3.46 µM | 3.19 µM | 3.72 µM |  | 3.63 µM | 1.74 µM | 1.74 µM | 1.9 µM | 1.7 µM | 1.54 µM | 1.95 µM | 1.75 µM | 1.52 µM | 1.85 µM |  |
